Test results published in ChEMBL document CHEMBL4402545, “Subtype Selective γ-Aminobutyric Acid Type A Receptor (GABAAR) Modulators Acting at the Benzodiazepine Binding Site: An Update” (J Med Chem, 2020).

Assays:
[1] = biological target: T1, GABA-A receptor; alpha-5/beta-3/gamma-2 (Homo sapiens, UniProt P18507+P28472+P31644); experiment: Displacement of [3H]-flumazenil from human GABAA alpha5beta3gamma2 expressed in Ltk cells; format: cell-based
T1 sequence (P18507 whole entry): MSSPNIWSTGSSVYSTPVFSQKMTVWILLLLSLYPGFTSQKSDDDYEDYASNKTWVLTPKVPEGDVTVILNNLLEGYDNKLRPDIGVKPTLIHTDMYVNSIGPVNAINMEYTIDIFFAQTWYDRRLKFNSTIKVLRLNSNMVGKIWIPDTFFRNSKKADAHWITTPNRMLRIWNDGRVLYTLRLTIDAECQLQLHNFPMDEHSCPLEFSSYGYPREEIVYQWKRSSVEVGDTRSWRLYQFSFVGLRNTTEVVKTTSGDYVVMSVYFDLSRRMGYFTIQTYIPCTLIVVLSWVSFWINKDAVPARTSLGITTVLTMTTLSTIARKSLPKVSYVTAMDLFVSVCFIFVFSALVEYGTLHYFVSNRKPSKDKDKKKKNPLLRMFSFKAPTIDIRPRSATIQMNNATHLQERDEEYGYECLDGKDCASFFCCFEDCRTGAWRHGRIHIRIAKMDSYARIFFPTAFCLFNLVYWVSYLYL
T1 sequence (P28472 whole entry): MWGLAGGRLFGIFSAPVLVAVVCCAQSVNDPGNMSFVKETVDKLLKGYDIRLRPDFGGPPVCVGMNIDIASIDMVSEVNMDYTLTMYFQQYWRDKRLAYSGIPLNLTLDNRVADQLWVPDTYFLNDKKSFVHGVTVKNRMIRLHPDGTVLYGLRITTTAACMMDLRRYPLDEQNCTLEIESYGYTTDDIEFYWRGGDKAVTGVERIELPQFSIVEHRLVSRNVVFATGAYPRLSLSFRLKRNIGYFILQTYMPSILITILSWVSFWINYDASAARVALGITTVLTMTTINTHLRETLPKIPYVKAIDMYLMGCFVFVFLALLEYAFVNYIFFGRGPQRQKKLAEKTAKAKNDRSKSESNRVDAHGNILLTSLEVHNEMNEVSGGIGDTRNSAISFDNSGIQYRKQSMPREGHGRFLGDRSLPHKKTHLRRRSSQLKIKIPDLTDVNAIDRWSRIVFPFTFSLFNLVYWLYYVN
T1 sequence (P31644 whole entry): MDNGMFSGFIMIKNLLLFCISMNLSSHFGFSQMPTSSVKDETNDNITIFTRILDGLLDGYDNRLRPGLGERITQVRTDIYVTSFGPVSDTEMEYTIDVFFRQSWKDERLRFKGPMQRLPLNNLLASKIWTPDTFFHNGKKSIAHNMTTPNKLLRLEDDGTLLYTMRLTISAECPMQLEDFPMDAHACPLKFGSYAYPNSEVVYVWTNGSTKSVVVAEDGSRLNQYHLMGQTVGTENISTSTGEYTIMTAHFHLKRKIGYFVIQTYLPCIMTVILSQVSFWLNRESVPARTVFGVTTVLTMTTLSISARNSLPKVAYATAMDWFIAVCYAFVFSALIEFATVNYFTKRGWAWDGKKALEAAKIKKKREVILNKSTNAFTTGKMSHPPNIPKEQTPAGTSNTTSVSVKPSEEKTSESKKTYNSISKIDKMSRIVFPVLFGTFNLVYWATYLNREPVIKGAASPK

[2] = biological target: T2, Gamma-aminobutyric acid receptor subunit alpha-3 (Homo sapiens) (UniProt P34903); experiment: Binding affinity to GABA-A alpha3 (unknown origin) assessed as increase in induced current relative to control
T2 sequence (whole entry): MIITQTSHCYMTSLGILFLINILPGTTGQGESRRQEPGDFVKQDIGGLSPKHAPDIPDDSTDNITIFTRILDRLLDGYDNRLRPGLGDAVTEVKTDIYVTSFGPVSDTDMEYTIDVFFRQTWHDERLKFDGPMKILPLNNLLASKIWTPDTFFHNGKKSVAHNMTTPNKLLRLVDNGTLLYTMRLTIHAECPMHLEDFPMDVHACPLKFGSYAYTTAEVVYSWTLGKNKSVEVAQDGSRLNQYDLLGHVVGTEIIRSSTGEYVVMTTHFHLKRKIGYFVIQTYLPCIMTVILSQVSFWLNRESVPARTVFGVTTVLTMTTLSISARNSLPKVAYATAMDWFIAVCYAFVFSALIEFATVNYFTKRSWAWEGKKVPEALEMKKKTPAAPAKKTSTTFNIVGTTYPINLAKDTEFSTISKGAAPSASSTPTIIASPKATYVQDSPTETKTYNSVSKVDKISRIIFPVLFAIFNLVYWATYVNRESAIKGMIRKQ

[3] = biological target: T3, Gamma-aminobutyric acid receptor subunit alpha-2 (Homo sapiens) (UniProt P47869); experiment: Binding affinity to GABA-A alpha2 (unknown origin) assessed as increase in induced current relative to control
T3 sequence (whole entry): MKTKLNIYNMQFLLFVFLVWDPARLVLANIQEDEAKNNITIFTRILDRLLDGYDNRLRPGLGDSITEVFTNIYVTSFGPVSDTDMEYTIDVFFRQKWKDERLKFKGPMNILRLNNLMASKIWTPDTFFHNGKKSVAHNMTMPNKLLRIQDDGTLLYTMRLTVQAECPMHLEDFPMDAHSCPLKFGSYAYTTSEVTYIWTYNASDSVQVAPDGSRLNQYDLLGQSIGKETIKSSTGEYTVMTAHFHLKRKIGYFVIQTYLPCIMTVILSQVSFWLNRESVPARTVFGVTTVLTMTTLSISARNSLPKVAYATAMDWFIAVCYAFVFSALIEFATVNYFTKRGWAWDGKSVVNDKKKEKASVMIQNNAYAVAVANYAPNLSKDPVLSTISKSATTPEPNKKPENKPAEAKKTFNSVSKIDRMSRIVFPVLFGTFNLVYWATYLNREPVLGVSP

[4] = biological target: T4, Gamma-aminobutyric acid receptor subunit alpha-5 (Homo sapiens) (UniProt P31644); experiment: Binding affinity to GABA-A alpha5 (unknown origin) assessed as increase in induced current relative to control
T4 sequence (whole entry): T1 sequence (P31644 whole entry)

[5] = biological target: T5, Gamma-aminobutyric acid receptor subunit alpha-1 (Homo sapiens) (UniProt P14867); experiment: Binding affinity to GABA-A alpha1 (unknown origin) assessed as increase in induced current relative to control
T5 sequence (whole entry): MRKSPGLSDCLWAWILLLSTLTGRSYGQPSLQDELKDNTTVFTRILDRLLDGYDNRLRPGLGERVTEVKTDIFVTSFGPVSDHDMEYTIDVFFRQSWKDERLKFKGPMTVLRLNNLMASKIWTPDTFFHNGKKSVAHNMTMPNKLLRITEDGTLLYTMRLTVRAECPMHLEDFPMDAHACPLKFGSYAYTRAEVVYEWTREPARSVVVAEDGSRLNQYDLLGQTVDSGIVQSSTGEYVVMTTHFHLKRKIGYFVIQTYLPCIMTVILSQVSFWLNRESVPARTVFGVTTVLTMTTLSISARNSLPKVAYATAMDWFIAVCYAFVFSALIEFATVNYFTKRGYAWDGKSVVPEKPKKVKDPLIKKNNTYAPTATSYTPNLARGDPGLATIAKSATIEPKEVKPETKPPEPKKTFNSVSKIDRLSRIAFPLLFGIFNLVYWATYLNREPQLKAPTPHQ

[6] = biological target: T6, GABA-A receptor; alpha-1/beta-3/gamma-2 (Homo sapiens, UniProt P14867+P18507+P28472); experiment: Displacement of [3H]-flumazenil from human GABAA alpha1beta3gamma2 expressed in Ltk cells; format: cell-based
T6 sequence (P14867 whole entry): T5 sequence (whole entry)
T6 sequence (P18507 whole entry): T1 sequence (P18507 whole entry)
T6 sequence (P28472 whole entry): T1 sequence (P28472 whole entry)

[7] = biological target: T7, GABA-A receptor; alpha-3/beta-3/gamma-2 (Homo sapiens, UniProt P18507+P28472+P34903); experiment: Displacement of [3H]-flumazenil from human GABAA alpha3beta3gamma2 expressed in Ltk cells; format: cell-based
T7 sequence (P18507 whole entry): T1 sequence (P18507 whole entry)
T7 sequence (P28472 whole entry): T1 sequence (P28472 whole entry)
T7 sequence (P34903 whole entry): T2 sequence (whole entry)

Homo sapiens [8] = experiment: In vivo receptor occupancy at GABAA receptor in human assessed as plasma concentration causing reduction in [11C]-flumazenil receptor labeling at 9 ng/ml by PET method relative to control; format: functional
Rattus norvegicus [9] = experiment: In vivo receptor occupancy at GABAA receptor in po dosed rat assessed as brain concentration causing 50% reduction in [3H]-flumazenil receptor labeling after 18 hrs by scintillation counting method; format: functional
Rattus norvegicus [10] = experiment: In vivo receptor occupancy at GABAA receptor in po dosed rat assessed as plasma concentration causing 50% reduction in [3H]-flumazenil receptor labeling by scintillation counting method; format: functional
[11] = biological target: T8, Gamma-aminobutyric acid receptor subunit alpha-5 (Homo sapiens, UniProt P31644); experiment: Binding affinity to GABA-A alpha5 (unknown origin)
T8 sequence (P31644 whole entry): T1 sequence (P31644 whole entry)

Homo sapiens [12] = experiment: In vivo receptor occupancy GABAA receptor in human assessed as neocortical regions concentration causing reduction in [11C]flumazenil receptor labeling at 1.5 mg after 24 hrs by PET method relative to control; format: functional
Homo sapiens [13] = experiment: In vivo receptor occupancy GABAA receptor in human assessed as neocortical regions concentration causing reduction in [11C]flumazenil receptor labeling at 1.5 mg after 5 hrs by PET method relative to control; format: functional
[14] = biological target: T9, Gamma-aminobutyric acid receptor subunit alpha-3 (Homo sapiens, UniProt P34903); experiment: Binding affinity to GABA-A alpha3 (unknown origin)
T9 sequence (P34903 whole entry): T2 sequence (whole entry)

[15] = biological target: T10, Gamma-aminobutyric acid receptor subunit alpha-1 (Homo sapiens, UniProt P14867); experiment: Binding affinity to GABA-A alpha1 (unknown origin)
T10 sequence (P14867 whole entry): T5 sequence (whole entry)

Rattus norvegicus [16] = experiment: In vivo receptor occupancy at GABAA receptor in po dosed Sprague-Dawley rat assessed as plasma concentration causing 50% reduction in [3H]-flumazenil receptor labeling by scintillation counting method; format: functional
Homo sapiens [17] = experiment: In vivo receptor occupancy at GABAA receptor in po dosed human assessed as plasma concentration causing 50% reduction in [11C]-flumazenil receptor labeling; format: functional
Rattus norvegicus [18] = experiment: In vivo receptor occupancy at GABAA receptor in po dosed Sprague-Dawley rat assessed as brain concentration causing 50% reduction in [3H]-flumazenil receptor labeling after 0.75 hrs by scintillation counting method; format: functional
[19] = biological target: T11, Gamma-aminobutyric acid receptor subunit alpha-2 (Homo sapiens, UniProt P47869); experiment: Binding affinity to GABA-A alpha2 (unknown origin)
T11 sequence (P47869 whole entry): T3 sequence (whole entry)

Row | Ki [1] | Ki [6] | Ki [7] | SMILES | fold change (FC) [2] | fold change (FC) [3] | fold change (FC) [4] | fold change (FC) [5] | Occ (Homo sapiens [8]) | Occ50 (Rattus norvegicus [9]) | Occ50 (Rattus norvegicus [10]) | Ki [11] | Occ (Homo sapiens [12]) | Occ (Homo sapiens [13]) | Ki [14] | Ki [15] | Occ50 (Rattus norvegicus [16]) | Occ50 (Homo sapiens [17]) | Occ50 (Rattus norvegicus [18]) | Ki [19]
1 | 2.25 nM | 0.79 nM | 0.67 nM | Cn1ncnc1COc1nn2c(-c3cc(F)ccc3F)nnc2cc1C(C)(C)C | 0.43 | 0.43 | 0.39 | 0.02 | – | – | – | – | – | – | – | – | – | – | – | –
2 | – | – | – | CCn1ncnc1COc1nn2c(-c3ccccc3F)nnc2cc1C(C)(C)C [MK-0777] | – | – | – | – | 50% | 0.42 mg/kg | 25 ng/mL | – | – | – | – | – | – | – | – | –
3 | – | – | – | CC(C)(O)c1cnn2c(-c3ccc(F)c(-c4c(F)cccc4C#N)c3)cnc2n1 | 0.5 | 0.38 | 0.37 | 0.03 | – | – | – | 1.1 nM | 46% | 52% | 1.8 nM | 0.73 nM | 19 ng/mL | 5.8 ng/mL | 0.09 mg/kg | 2 nM
